Measurements: PubChem BioAssay AID1259407 (Chemical Carcinogenesis Research Information System (CCRIS), 2018)
Calls of active or inactive are those of the source. No rule for the calls is given here.

System: CCRIS mutagenicity, Ames/micronucleus/aberration tests
Test: CCRIS mutagenicity studies
[1] = Test System: AMES SALMONELLA TYPHIMURIUM, Strain/Indicator: TA98, Metabolic Activation: NONE, Method: STANDARD PLATE
[2] = Test System: AMES SALMONELLA TYPHIMURIUM, Strain/Indicator: TA98, Metabolic Activation: S-9, Method: STANDARD PLATE
[3] = Test System: AMES SALMONELLA TYPHIMURIUM, Strain/Indicator: TA100, Metabolic Activation: NONE, Method: STANDARD PLATE
[4] = Test System: AMES SALMONELLA TYPHIMURIUM, Strain/Indicator: TA100, Metabolic Activation: S-9, Method: STANDARD PLATE
[5] = Test System: AMES SALMONELLA TYPHIMURIUM, Strain/Indicator: TA98, Metabolic Activation: NONE, Method: PREINCUBATION
[6] = Test System: AMES SALMONELLA TYPHIMURIUM, Strain/Indicator: TA100, Metabolic Activation: NONE, Method: PREINCUBATION
[7] = Test System: AMES SALMONELLA TYPHIMURIUM, Strain/Indicator: TA1537, Metabolic Activation: NONE, Method: PREINCUBATION
[8] = Test System: AMES SALMONELLA TYPHIMURIUM, Strain/Indicator: TA98, Metabolic Activation: RAT, LIVER, S-9, AROCLOR 1254, Method: STANDARD PLATE
[9] = Test System: AMES SALMONELLA TYPHIMURIUM, Strain/Indicator: TA100, Metabolic Activation: RAT, LIVER, S-9, AROCLOR 1254, Method: STANDARD PLATE
[10] = Test System: AMES SALMONELLA TYPHIMURIUM, Strain/Indicator: TA1535, Metabolic Activation: NONE, Method: STANDARD PLATE
[11] = Test System: AMES SALMONELLA TYPHIMURIUM, Strain/Indicator: TA1535, Metabolic Activation: RAT, LIVER, S-9, AROCLOR 1254, Method: STANDARD PLATE
[12] = Test System: AMES SALMONELLA TYPHIMURIUM, Strain/Indicator: TA1537, Metabolic Activation: NONE, Method: STANDARD PLATE
[13] = Test System: AMES SALMONELLA TYPHIMURIUM, Strain/Indicator: TA1537, Metabolic Activation: RAT, LIVER, S-9, AROCLOR 1254, Method: STANDARD PLATE
[14] = Test System: AMES SALMONELLA TYPHIMURIUM, Strain/Indicator: TA97, Metabolic Activation: NONE, Method: PREINCUBATION

CC(C)COC(=O)CCCCC(=O)OCC(C)C
mutagenic call (Test System: AMES SALMONELLA TYPHIMURIUM, Strain/Indicator: TA97, Metabolic Activation: NONE, Method: STANDARD PLATE): inactive; negative
mutagenic call (Test System: AMES SALMONELLA TYPHIMURIUM, Strain/Indicator: TA97, Metabolic Activation: S-9, Method: STANDARD PLATE): inactive; negative
mutagenic call [1]: inactive; negative
mutagenic call [2]: inactive; negative
mutagenic call [3]: inactive; negative
mutagenic call [4]: inactive; negative
mutagenic call (Test System: AMES SALMONELLA TYPHIMURIUM, Strain/Indicator: TA102, Metabolic Activation: NONE, Method: STANDARD PLATE): inactive; negative
mutagenic call (Test System: AMES SALMONELLA TYPHIMURIUM, Strain/Indicator: TA102, Metabolic Activation: S-9, Method: STANDARD PLATE): inactive; negative
mutagenic call (Test System: E.COLI, Strain/Indicator: WP2 (PKM101), Metabolic Activation: NONE, Method: STANDARD PLATE): inactive; negative
mutagenic call (Test System: E.COLI, Strain/Indicator: WP2 (PKM101), Metabolic Activation: S-9, Method: STANDARD PLATE): inactive; negative

O=C1c2ccccc2C(=O)c2c(O)cc(O)cc21
mutagenic call [5]: inactive; negative
mutagenic call (Test System: AMES SALMONELLA TYPHIMURIUM, Strain/Indicator: TA98, Metabolic Activation: RAT, LIVER, S-9, PCB, Method: PREINCUBATION): active; positive
mutagenic call [6]: inactive; negative
mutagenic call (Test System: AMES SALMONELLA TYPHIMURIUM, Strain/Indicator: TA100, Metabolic Activation: RAT, LIVER, S-9, PCB, Method: PREINCUBATION): active; positive
mutagenic call [7]: active; positive
mutagenic call (Test System: AMES SALMONELLA TYPHIMURIUM, Strain/Indicator: TA1537, Metabolic Activation: RAT, LIVER, S-9, Method: PREINCUBATION): active; positive
mutagenic call (Test System: CHINESE HAMSTER V-79, Strain/Indicator: V-79/8-AZAGUANINE, Metabolic Activation: NONE, Method: STANDARD PLATE): active; positive
mutagenic call (Test System: CHINESE HAMSTER V-79, Strain/Indicator: V-79/8-AZAGUANINE, Metabolic Activation: PRIMARY RAT HEPATOCYTES, Method: STANDARD PLATE): active; positive
mutagenic call (Test System: UDS RODENT HEPATOCYTES, Strain/Indicator: THY INCORP (NON-S-PHASE), Metabolic Activation: NONE, Method: AUTORADIOGRAPHY): active; positive

CC1(C)CCC[C@]2(C)[C@@H](C=O)C(C=O)=CC[C@@H]12
mutagenic call [1]: inactive; negative
mutagenic call [3]: inactive; negative
mutagenic call (Test System: AMES SALMONELLA TYPHIMURIUM, Strain/Indicator: TA2637, Metabolic Activation: NONE, Method: STANDARD PLATE): inactive; negative
mutagenic call (Test System: CHINESE HAMSTER V-79, Strain/Indicator: V-79/6-THIOGUANINE (HGPRT), Metabolic Activation: NONE): inactive; negative

CC(C)CC(=O)OCc1cocc2c(C=O)ccc1-2
mutagenic call [1]: active; positive
mutagenic call [8]: active; positive
mutagenic call [3]: active; positive
mutagenic call [9]: active; positive
mutagenic call [10]: inactive; negative
mutagenic call [11]: inactive; negative
mutagenic call [12]: inactive; negative
mutagenic call [13]: inactive; negative

O=C(NCc1ccccc1)C1CO1 (stereo not drawn)
mutagenic call (Test System: AMES SALMONELLA TYPHIMURIUM, Strain/Indicator: TA100, Metabolic Activation: MOUSE, LIVER, S-9, AROCLOR 1254, Method: STANDARD PLATE): active; positive
mutagenic call [3]: active; positive

Nc1cc(C(=O)O)c(O)c(S(=O)(=O)O)c1
mutagenic call (Test System: AMES SALMONELLA TYPHIMURIUM, Strain/Indicator: TA97, Metabolic Activation: HAMSTER, LIVER, S-9, AROCLOR 1254 (10 OR 30%), Method: PREINCUBATION): inactive; negative
mutagenic call [14]: inactive; negative
mutagenic call (Test System: AMES SALMONELLA TYPHIMURIUM, Strain/Indicator: TA97, Metabolic Activation: RAT, LIVER, S-9, AROCLOR 1254 (10%), Method: PREINCUBATION): inactive; negative
mutagenic call (Test System: AMES SALMONELLA TYPHIMURIUM, Strain/Indicator: TA97, Metabolic Activation: RAT, LIVER, S-9, AROCLOR 1254 (30%), Method: PREINCUBATION): inactive; negative
mutagenic call (Test System: AMES SALMONELLA TYPHIMURIUM, Strain/Indicator: TA98, Metabolic Activation: HAMSTER, LIVER, S-9, AROCLOR 1254 (10 OR 30%), Method: PREINCUBATION): inactive; negative
mutagenic call [5]: inactive; negative
mutagenic call (Test System: AMES SALMONELLA TYPHIMURIUM, Strain/Indicator: TA98, Metabolic Activation: RAT, LIVER, S-9, AROCLOR 1254 (10 OR 30%), Method: PREINCUBATION): inactive; negative
mutagenic call (Test System: AMES SALMONELLA TYPHIMURIUM, Strain/Indicator: TA100, Metabolic Activation: HAMSTER, LIVER, S-9, AROCLOR 1254 (10 OR 30%), Method: PREINCUBATION): inactive; negative
mutagenic call [6]: inactive; negative
mutagenic call (Test System: AMES SALMONELLA TYPHIMURIUM, Strain/Indicator: TA100, Metabolic Activation: RAT, LIVER, S-9, AROCLOR 1254 (10 OR 30%), Method: PREINCUBATION): inactive; negative
mutagenic call (Test System: AMES SALMONELLA TYPHIMURIUM, Strain/Indicator: TA1535, Metabolic Activation: HAMSTER, LIVER, S-9, AROCLOR 1254 (10 OR 30%), Method: PREINCUBATION): inactive; negative
mutagenic call (Test System: AMES SALMONELLA TYPHIMURIUM, Strain/Indicator: TA1535, Metabolic Activation: NONE, Method: PREINCUBATION): inactive; negative
mutagenic call (Test System: AMES SALMONELLA TYPHIMURIUM, Strain/Indicator: TA1535, Metabolic Activation: RAT, LIVER, S-9, AROCLOR 1254 (10 OR 30%), Method: PREINCUBATION): inactive; negative
mutagenic call (Test System: AMES SALMONELLA TYPHIMURIUM, Strain/Indicator: TA1537, Metabolic Activation: HAMSTER, LIVER, S-9, AROCLOR 1254 (10 OR 30%), Method: PREINCUBATION): inactive; negative
mutagenic call [7]: inactive; negative
mutagenic call (Test System: AMES SALMONELLA TYPHIMURIUM, Strain/Indicator: TA1537, Metabolic Activation: RAT, LIVER, S-9, AROCLOR 1254 (10 OR 30%), Method: PREINCUBATION): inactive; negative

C/C(=C(\CCOC(=O)c1ccccc1)SC(=O)c1ccccc1)N(C=O)Cc1cnc(C)nc1N
mutagenic call [14]: inactive; negative
mutagenic call (Test System: AMES SALMONELLA TYPHIMURIUM, Strain/Indicator: TA97, Metabolic Activation: RAT, LIVER, S-9, AROCLOR 1254, Method: PREINCUBATION): inactive; negative
mutagenic call (Test System: AMES SALMONELLA TYPHIMURIUM, Strain/Indicator: TA102, Metabolic Activation: NONE, Method: PREINCUBATION): inactive; negative
mutagenic call (Test System: AMES SALMONELLA TYPHIMURIUM, Strain/Indicator: TA102, Metabolic Activation: RAT, LIVER, S-9, AROCLOR 1254, Method: PREINCUBATION): inactive; negative

Cc1ccc(C(C)C)cc1O
mutagenic call [1]: inactive; negative
mutagenic call [2]: inactive; negative
mutagenic call [3]: inactive; negative
mutagenic call [4]: inactive; negative

O=S(=O)(NO)c1cccc2cccnc12
mutagenic call [1]: inactive; negative
mutagenic call [8]: inactive; negative
mutagenic call [3]: inactive; negative
mutagenic call [9]: inactive; negative
mutagenic call [10]: inactive; negative
mutagenic call [11]: inactive; negative
mutagenic call [12]: inactive; negative
mutagenic call [13]: inactive; negative

CC(=O)[O-].CC(=O)[O-].[Hg+2]
mutagenic call (End Point: IN VITRO MICRONUCLEUS, Test System: CHL/IU CELLS, Metabolic Activation: NONE): active; positive
mutagenic call (Test System: CHINESE HAMSTER OVARY, Strain/Indicator: AS52/6-THIOGUANINE, Metabolic Activation: NONE): active; positive
mutagenic call (Test System: CHINESE HAMSTER OVARY, Strain/Indicator: CHO-AS52/6-THIOGUANINE, Metabolic Activation: NONE): active; positive
